Results: patent US9512425B2, “Inhibiting migration of cancer cells” (Cornell University, priority 2012, dated 2016)

How the values were obtained:
[1] = test system: metastatic prostate cancer cells PC3; assay: Migration of PC3 cells with ectopic miR-708; type: cell-based, human; conditions: ectopic expression of miR-708 in PC3
p-FAK (S910) = assay: Western blot and immunostaining of p-FAK; type: cell-based, human
Method: (§1) Cells were homogenized in 1×RIPA lysis buffer (Millipore) containing protease inhibitors (Roche Applied Science) and 1× phosphatase inhibitor (Thermo Scientific). Samples were boiled in 1× NuPAGE LDS sampling buffer (Invitrogen), and loaded onto 4-20% gradient Tris-HCl gels (BioRad). Western blotting was performed using antibodies specific for NNAT (Cat#AB27266, Abcam), EPDR1 (Cat# SC81820, Santa Cruz), SSRP1 (Cat#SC56782, Santa Cruz), HOXB3 (Cat# SC17161, Santa Cruz), HNRNPK (Cat# SC28380, Santa Cruz), CNTFR, Phospho-p44/42 MAPK (Erk1/2, Cat #4370, Cell Signaling), p44/42 MAPK (Erk1/2, Cat #4695, Cell Signaling), VINCULIN (Cat#V9131, Sigma-Aldrich), and β-ACTIN (Sigma-Aldrich).
For immunofluorescence staining, cells were fixed overnight in paraformaldehyde before incubation with primary antibodies; mouse-monoclonal VINCULIN (Cat#V9131, Sigma-Aldrich, 1:400) and rabbit-polyclonal phosphorylated FAK (pS910, Cat #44596G, Invitrogen, 1:1000). Alexa Flour 568 or Alexa Fluor 647 anti-mouse IgG, and Alexa Fluor 647 anti-rabbit IgG (Invitrogen), were used for visualization. Following incubation with secondary antibodies the tissue sections were treated with Rhodamine Phalloidin (Cat# R415, Invitrogen). […] Images were analyzed using Axiovision 4.6 software (Carl Zeiss Inc.).

p-ERK (T202) = assay: Western blot of p-ERK after ATP stimulation; type: cell-based, human; conditions: MDA-miR-708 vs MDA cells after ATP
Method: as §1

MDA-MB-231 cells = assay: Orthotopic MDA tumor / pulmonary metastasis model, bioluminescence imaging; type: in vivo, CB-17 SCID mice
Method: For orthotopic injection, 1×10^6 viable MDA-MB-231, MDA-Cont, or MDA-miR-708 cells were injected into CB-17 SCID mice fat pads in a volume of 0.1 ml. Tumor growth and pulmonary metastases (following resection of primary tumor) were monitored by live animal bioluminescent imaging (Xenogen IVIS system) once per week.
Mice inoculated with firefly luciferase were anaesthetized and injected retro-orbitally with 75 mg/kg of D-luciferin (30 mg/mL in PBS). Images were taken with mice in a supine position using the Xenogen IVIS system coupled to Living Image acquisition and analysis software (Xenogen). For bioluminescence (BLI) plots, photon flux was calculated for each mouse by using a rectangular region of interest encompassing the thorax of the mouse.

NNAT protein = assay: Western blot of NNAT; type: cell-based, human
Method: as §1

cortical actin = assay: Immunostaining for vinculin and F-actin (phalloidin); type: cell-based, human; conditions: MDA-miR-708 cells
Method: For immunofluorescence staining, cells were fixed overnight in paraformaldehyde before incubation with primary antibodies; mouse-monoclonal VINCULIN (Cat#V9131, Sigma-Aldrich, 1:400) and rabbit-polyclonal phosphorylated FAK (pS910, Cat #44596G, Invitrogen, 1:1000). Alexa Flour 568 or Alexa Fluor 647 anti-mouse IgG, and Alexa Fluor 647 anti-rabbit IgG (Invitrogen), were used for visualization. Following incubation with secondary antibodies the tissue sections were treated with Rhodamine Phalloidin (Cat# R415, Invitrogen). Fluorescent images were obtained using a computerized Zeiss fluorescent microscope (Axiovert 200M), fitted with an apotome and an HRM camera. Images were analyzed using Axiovision 4.6 software (Carl Zeiss Inc.).

Nnat 3'-UTR = assay: 3'-UTR dual luciferase assay; type: cell-based, human
Method: The 3′-UTR of a gene of interest was amplified by PCR and cloned into a pmirGLO Dual-Luciferase miRNA Target Expression Vector (Promega). To express miRNA, synthetic premiRNA precursor for miR-708 and control scrambled miRNA were purchased from Applied Biosystems (Ambion). The miRNA precursor and pmirGLO Dual-Luciferase 3′-UTR vector were co-transfected into […] cells using the siPORT NeoFX Transfection Agent following manufacturer's instructions (Ambion). Cells were harvested and lysed at 48 hr post-transfection. The interaction between miR-708 and target 3′-UTR was measured by Dual-luciferase assay system (Promega).

For “miR-708: microRNA, mature sequence 5'-AAGGAGCUUACAAUCUAGCUGGG-3' (SEQ ID NO: 2); expressed from lentiviral vector or used as synthetic precursor”, the migration [1] was “suppressed migration”, the “p-FAK levels following ATP-mediated Ca^2+ release” value (p-FAK (S910); Western blot, MDA-miR-708 vs MDA cells) was “increased in MDA and not in MDA-miR-708 cells” and the “p-FAK at vinculin+ focal adhesions” value (p-FAK (S910); immunostaining, MDA-miR-708 cells) was “devoid of p-FAK”. The “activated Erk (p-Erk) levels” value (p-ERK (T202)) was “reduced levels”, the “primary tumor growth (bioluminescence imaging)” value (MDA-MB-231 cells; MDA-miR-708 vs MDA-pZeo control, day 30) was “no change” and the “lung metastases (bioluminescence)” value (MDA-MB-231 cells; MDA-miR-708 vs control, primary tumors resected day 30, day 37) was “significantly suppressed”. For the same substance, the “primary tumor growth (bioluminescence)” value (MDA-MB-231 cells; constitutive miR-708 in MDA cells, mammary fat pad, day 60) was “no significant difference”, the “lung metastases (bioluminescence)” value (MDA-MB-231 cells; constitutive miR-708 in MDA cells, primary tumors resected day 60, day 74) was “suppressed lung metastases” and the primary tumor growth (MDA-MB-231 cells; doxycycline-mediated induction of miR-708, day 60) was “not affected”. For the same substance, the metastases (MDA-MB-231 cells; doxycycline-mediated induction of miR-708, day 74) was “attenuated metastases”, the “expression of NNAT protein” value (NNAT protein; MDA-708 vs MDA control cells, constitutive expression) was “significantly decreased” and the Nnat levels (NNAT protein; doxycycline-mediated conditional expression of miR-708) was “significant reduction”. The “NNAT expression from Nnat cDNA” value (NNAT protein; mutant 3'-UTR (Nnat-mut), synthetic miR-708) was “abolished miR-708-mediated suppression”, the “NNAT expression from Nnat cDNA” value (NNAT protein; wild type UTR, synthetic miR-708 vs scrambled) was “suppressed expression” and the cortical actin phenotype (cortical actin) was “thick bands of cortical actin rings”. The “repression of 3'-UTR luciferase reporter” value (Nnat 3'-UTR; 293T cells, Renilla/Firefly ratio) was “significant repression”, the “repression of wild type UTR (Nnat-UTR) reporter” value (Nnat 3'-UTR; synthetic miR-708 vs scrambled miRNA, intact UTR) was “effectively suppressed” and the “repression of mutant UTR (Nnat-UTR-mut) reporter” value (Nnat 3'-UTR; synthetic miR-708 vs scrambled miRNA, mutated binding site) was “refractory to suppression”.
